System: neuS gene product of E.coli K92 expressed in BL21(DE3)
Test: Sialyltransferase assay: substrate specificity for acceptor substrates (transfer of 14C-NeuAc from CMP[14C]NeuAc)
Assay type: biochemical
Details: for Total sialic acid transferred / cpm obtained (per 60 ul reaction): 1 (M acceptor, 9 nmol CMP[14C]NeuAc (8000 cpm/nmol) as donor, 37 °C, 1 hr, 20 (g of 40K Sup; for Total sialic acid transferred: per 60 ul reaction; for cpm obtained (per 60 ul reaction): product spot on DEAE-cellulose TLC counted; for suitability as acceptor substrate (in words): cell-free fractions (15 K Sup, 40 K Sup, pellet), CMP[14C]NeuAc as donor
Procedure: The assay was carried out essentially as described by Vimr et al (Steenbergen, S. M. et al. (1992) J. Bacteriol. 174 : 1099-1108) with the following modifications : after harvesting, the cells were washed three times with 25 mM Tris HCI (pH 8. 0) and then resuspended in 25 mM Tris HCl (pH 8. 0) containing 5 mM MgCl2, 5 mM dithiothreitol (DTT), and 1 (1/mL protease inhibitor cocktail (Sigma). Cells were lysed three times by using a French Press (AMINCO; 1, 500 psi). The cell debris was removed by centrifugation twice at 15, 000 rpm and the supernatant was collected (termed the 15 K Sup). This supernatant was then centrifuged again at 100,000x g (~ 40 K rpm) using a Beckman ultracentrifuge (Model L5-50). Both the supernatant (termed the 40 K Sup) and the pellet were saved. The pellet was resuspended in a buffer containing 25 mM Tris-HCI, 5 mM MgCl2, 5 mM DTT, and 0.1% Triton CF-54. The supernatants and the pellet were stored on ice, and used for assay within 2 h.
Without the addition of acceptor, the endogenous enzyme activity was determined. The exogenous activity was then detected by addition of sialic acid as acceptor and CMP[^14C]NeuAc as donor in a reaction buffer containing 25 mM Tris-HCl (pH 8.0), 5 mM MgCl2, 5 mM DTT, and 0.5% Triton CF-54. Other substrates were also used, including colominic acid. Both the endogenous and exogenous enzyme activity assays measure the transfer of ^14C-labeled NeuAc to the acceptor. Unreacted radiolabeled substrates were seperated by DEAE-cellulose TLC (n-propanol/14M NH4OH/H2O:: 6 : 1: 3) or by Sephadex G-25 column chromatography. Radioactivity remaining at the origin and/or at the top of the TLC plate or the product obtained at the void volume of Sephadex G-25 column, was quantitated by liquid scintillation spectrometry. For analysis using Sephadex G-25 column chromatography, a column (1 cm x 3.5 cm) of Sephadex G-25 (Pharmacia) in water was prepared. The radiolabeled cell-free reaction mixture (60 (1) was loaded and washed with 1.5 ml of water, which was collected and counted. In some experiments, the activity was determined by separating the unused CMP[^14C]NeuAc by Dowex 1X8 (phosphate form) column chromatography (Williams, M. A. et al. (1995) Glycoconj. J. 12: 755 - 761). The initial rates were estimated graphically, and activity was expressed as pmoles of sialic acid transferred per hour.
The reaction mixture (60 (l) contained 1 (M each of the following acceptors and 9 nmol of CMP[^14C]NeuAc (specific activity: 8000 cpm/nmol) as donor substrate. The reactions were carried out at 37 °C for 1 hr using 20 (g of 40K Sup as mentioned in 'Materials and Methods.' The reaction mixture (1 (1) was spotted on a plastic backed DEAE-cellulose TLC plate, and ran in n-propanol:14.5M NH4OH:water :: 6:1:3. After air-drying, the plate was exposed to Kodak's XAR-5 film for overnight at -70° C. The area corresponding to the reaction product was marked, cut and then counted in scintillation fluid.

Row | Compound | Total sialic acid transferred [pmol] | cpm obtained (per 60 ul reaction) [cpm] | suitability as acceptor substrate (in words) | suitability as acceptor substrate (in words) (listed as neuraminic acid)
1 | CC(=O)N[C@H]1[C@H]([C@H](O)[C@H](O)COC(C)=O)OC(O)(C(=O)O)C[C@@H]1O (stereo partly drawn) [9-O-acetyl sialic acid] | 110 | 900 | not well accepted | 
2 | CC(=O)N[C@H]1[C@H]([C@H](O)[C@H](O)CO)O[C@@](O[C@H](CO)[C@@H](O)[C@@H]2OC(O)(C(=O)O)C[C@H](O)[C@H]2NC(C)=O)(C(=O)O)C[C@@H]1O (stereo partly drawn) [Dimer] | 140 | 1080 | poor acceptors | 
3 | CC(=O)N[C@H]1[C@H]([C@H](O)[C@H](O)CO)OC(O)(C(=O)O)C[C@@H]1O (stereo partly drawn) [Monomer, sialic acid] | 470 | 3780 | good acceptors | best substrate
4 | CC(=O)N[C@H]1[C@H]([C@H](O)[C@H](O)CO)O[C@@](O[C@H](CO)[C@@H](O)[C@@H]2O[C@@](O[C@H](CO)[C@@H](O)[C@@H]3OC(O)(C(=O)O)C[C@H](O)[C@H]3NC(C)=O)(C(=O)O)C[C@H](O)[C@H]2NC(C)=O)(C(=O)O)C[C@@H]1O (stereo partly drawn) [Trimer] | 140 | 1560 | poor acceptors | 
5 | GT1b | 130 | 1140 |  | 
